Patent publication US20080095737A1, “NON-TOXIC COATING COMPOSITION, METHODS OF USE THEREOF AND ARTICLES PROTECTED FROM ATTACHMENT OF BIOFOULING ORGANISMS” (Symrise GmbH & Co. KG, priority 2000, published 2008)
Values after ≈ are worked out from the molar mass of the structure shown. Values joined by “and” are separate entries in the source; they are usually repeats but may differ in a detail not shown here. Equal values may be shown once. Read-outs that look alike come from different tables or passages of the source.

Legend:
[1] = system: cyprid larvae of the barnacle, Balanus amphitrite Darwin; experiment: Barnacle settlement inhibition assay; assay type: in vivo; settings: for EC50: Amphibalanus amphitrite, read-out: EC50 (concentration which inhibited the settlement of 50% of the cyprid stage larvae); for efficacy as antifouling agents: in words
Description: Mary's College in Tuticorin, India. The barnacles were crushed and the nauplius stage larvae were collected for culture to the cyprid stage following the method of Rittschof et al., J. Exp. Mar. Biol. Ecol., 82:131146 (1984). The cyprid is the stage at which the barnacle larva is competent to attach to surfaces. Upon attachment to a surface, the larva then undergoes metamorphosis into a barnacle. Barnacle settlement assays were undertaken using the method described previously by Rittschof et al., J. Chem. […] Briefly, Falcon 50×9 mm plastic petri dishes were filled with 5 ml of filtered seawater at salinity of 33-35 parts per thousand (ppt) and into which 3-day old cyprid stage larvae were added. The test compounds were introduced at various concentrations into the dishes containing seawater. The test compounds included (-)menthol and (-)[…]-3,8-diol. Controls were represented by those dishes in which no test compound were added. After incubation at 28° C. for 9 hours, the dishes were examined under a dissecting microscope to determine if there was any mortality. […] Settlement data were expressed as the percentage of the larvae attached to the bottom of the dish. The same settlement assay was used to determine the effective concentration of a number of different compounds of formula I, above. The effective concentration (EC50) is that concentration which inhibited the settlement of fifty percent (50%) of the cyprid stage of the barnacle larvae present in a test sample.

Aeromonas sp. (Ael) = experiment: Agar diffusion assay, marine bacteria associated with B. amphitrite; assay type: cell-based; settings: 0.004 mg/ml loaded on 6.5 mm disks
Flavobacterium sp. (F) = experiment: as above; assay type: cell-based; settings: 0.004 mg/ml loaded on 6.5 mm disks
[2] = system: other bacterial strains associated with B. amphitrite; experiment: as above; assay type: cell-based; settings: 0.004 mg/ml loaded on 6.5 mm disks
Vibrio sp. (V, & V,) = experiment: Agar diffusion assay, marine bacteria associated with Perna sp; assay type: cell-based; settings: procedure as Example 2
Dunaliella tertiolecta = experiment: In vitro cell growth inhibition assay, marine unicellular algae; assay type: cell-based; settings: 0.00001-1.0 mg/ml, cell counts at 24-hour intervals
Protocol: (§1) The in vitro cell growth inhibition assay used in this test is described in […], et al., J. Chem. Ecol., supra. Dunaliella tertiolecta is a marine micro algae cultured in the laboratory. Each test algae was inoculated from stock culture into flasks containing growth medium. (-)-menthol was added to the flask at various concentrations and the growth was monitored on each flask using a haemocytometer at 24-hour intervals up to the death phase of the culture.

Nitzchia sp. = experiment: In vitro cell growth inhibition assay, Nitzchia sp; assay type: cell-based; settings: 0.00001-1.0 mg/ml, compared to the control
Protocol: as §1, with “culture. The test procedure employed was substantially the same as described in Example 4, except that Nitzchia sp. was substituted for D. tertiolecta.” for “culture.”

fouling phytoplanktons = experiment: Attachment of fouling phytoplanktons on painted submerged cement structures (seawater raceway); parameters: key: +++++: highest amount of fouling attachments; −: no appreciable fouling attachments; settings: 5% by weight in paint on cement structure, 60 days in seawater raceway
Protocol: A raceway measuring 100 feet long, 15 feet wide and 3 feet deep was constructed near the sea and lined with a plastic liner. Seawater was pumped directly from the sea and the Growth of naturally occurring plankton was induced by fertilization of the seawater. The total volume of the seawater was approximately 150 cubic meters. The water was circulated and aerated using a paddlewheel. Samples of the seawater were analyzed after 30 days and found to contain the following species of diatoms: Grammatophoria ocean ica, Nitzschia sp., A,inphora sp., Amphora bigilba, Thalassiothrix sp., Stauroneis sp., Licniophora sp., and Navicula sp. The seawater also contained the dinoflagellate, Peridhan sp., and the blue Green algae, Ocillatoria sp. and Rivularia sp.
A conventional paint formulation that was free of any tributyl tin compounds was used as a control. Paint formulations embodying the present invention were prepared by incorporating (−)-menthol and (−)-(trans)-p-menthan-3,8-diol at a dose concentration of 5 percent (5%) by weight of each compound into the same paint vehicle used for the control formulation, and these two formulations were painted on separate surfaces of cement structures placed in the raceway. The controls consisted of unpainted cement surface and surface painted with the control formulation. […]

[3] = system: barnacle, Balanus amphitrite communis; experiment: Painted iron panels submerged in the sea, barnacle attachment; settings: cuprous oxide-containing marine paint on iron panels, submerged 78 weeks; control paint = 100
Protocol: A floating platform was constructed using layers of bamboo and styrofoam floats. The platform was designed with holders to accommodate test panels measuring 4 inches×12 inches×0.25 inches.
A first experimental paint was prepared, containing a biocidally effective amount of cuprous oxide and no other biocide which was used as the control. To this composition was added a combination of 0.5%, by weight of (−)-trans-pmenthan-3,8-diol and 0.50 of (−)-menthol (Composition A). A second paint composition was prepared from the same marine paint vehicle containing cuprous oxide, to which was added 2% by weight of (−)-menthol (Composition B). A third formulation was made from the same cuprous oxide-containing marine paint vehicle, to which was added 2% by weight of (−)-trans-p-menthan-3,8-diol (Composition C).
Solid iron panels having the above-mentioned dimensions were painted with the paint formulations thus prepared, placed in the holders in the floating platform and submerged continuously near the center of Bitac Cove in San Dionisio Bay (Philippines) for a period of 78 weeks. The panels were examined for a few minutes every three months and immediately resubmerged after photography. After 78 weeks, the panels were removed and inspected. The numbers of barnacles attached to the panels were counted. […]

[4] = system: nauplii of the barnacle, Balauus annphitrite Darwin; experiment: Mortality of barnacle nauplii at the effective concentrations; settings: prolonged exposure at the compound's EC50 concentration
[5] = system: other bacterial strains associated with Perna sp; experiment: Agar diffusion assay, marine bacteria associated with Perna sp; settings: procedure as Example 2
[6] = system: barnacle, Balanus amphitrite Darwin; settings: cited from earlier work
[7] = settlement assay, cyprid larvae

C=C(C)C1CCC(C)CC1O (single isomer, unassigned; (-)) [(−)-isopulegol, 5-methyl-2-(1-methylethenyl)cyclohexanol]
EC50 [1, 7]: 0.088 mg/L (≈ 0.57 µM)
efficacy as antifouling agents ([1]; settlement assay): superior efficacy

CC1CCC(C(C)C)C(O)C1 (single isomer, unassigned; (-)) [(−)-menthol]
EC50 [1]: 4 mg/L (≈ 25.6 µM)
settlement (percentage of the larvae attached to the bottom of the dish) ([1]; each of five concentrations tested (concentrations not given), in order, last = highest, 9 hours at 28° C., control 59% (diol) / 58% (menthol)): 39% and 34% and 26% and 23% and 21%
zone of inhibition, radius (Aeromonas sp. (Ael)): greater than 10 mm
zone of inhibition, radius (Flavobacterium sp. (F)): greater than 10 mm
sensitivity of bacterial strains [2]: moderately sensitive
zone of inhibition, radius (Vibrio sp. (V, & V,)): greater than 8.5 mm
inhibition of growth (Dunaliella tertiolecta): effective in inhibiting the growth of this micro algae in a dose dependent manner
inhibition of growth rate (Nitzchia sp.): effective at all of the concentrations tested in inhibiting the growth rate
DEGREE OF BIOFOULING (fouling phytoplanktons): −
% Settlement [3]: 16.1%
mortality of barnacle nauplii [4]: did not show any mortality
sensitivity of bacterial strains [5]: moderately sensitive

CC1CCC(C(C)C)C(=O)C1 (single isomer, unassigned; (-)) [(−)-menthone]
EC50 [1]: 1 mg/L (≈ 6.48 µM)
mortality of barnacle nauplii [4]: did not show any mortality

CC1CCC(C(C)C)C(Cl)C1 (single isomer, unassigned; (-)) [(−)-menthyl chloride]
EC50 [1]: 0.1 mg/L
mortality of barnacle nauplii [4]: did not show any mortality

CC1CCC(C(C)(C)O)C(O)C1 (single isomer, unassigned; (-)) [(−)-trans-p-menthan-3,8-diol]
EC50 [1]: 1 mg/L (≈ 5.8 µM)
DEGREE OF BIOFOULING (fouling phytoplanktons): −
% Settlement [3]: 27.1%
mortality of barnacle nauplii [4]: did not show any mortality

CCC[CH2][Sn]([Cl])([CH2]CCC)[CH2]CCC [TBT chloride]
acute toxicity, estimated dose [6]: ~3.4 μg (microgram) per liter
acute toxicity, estimated dose ([6]; same value restated): ~0.0000034 grams/liter

CC1CCC(C(C)C)C(OCC(O)CO)C1 (centres unmarked) [menthoxypropanediol, 3-[[5-methyl-2-(1-methylethyl)cyclohexyl]oxy]-1,2-propanediol]
EC50 [1, 7]: 0.002 mg/L (≈ 0.00868 µM)
efficacy as antifouling agents ([1]; settlement assay): superior efficacy
